Test results from ChEMBL document CHEMBL5113482, “Discovery of fused benzimidazole-imidazole autophagic flux inhibitors for treatment of triple-negative breast cancer” (Eur J Med Chem, 2022).

What was measured:
MDA-MB-231 = assay: Antiproliferative activity against human MDA-MB-231 cells assessed as cell growth inhibition measured after 48 hrs by MTT assay; type: functional, cell-based; conditions: MDA-MB-231, 48 h
MDA-MB-468 = assay: Antiproliferative activity against human MDA-MB-468 cells assessed as cell growth inhibition measured after 48 hrs by MTT assay; type: functional, cell-based; conditions: MDA-MB-468, 48 h

Row | Compound | IC50 (MDA-MB-231) | IC50 (MDA-MB-468)
1 | O=C(NC1CC1)c1[nH]cnc1-c1nc2ccccc2[nH]1 | 35.2 µM | 
2 | Cc1cc2nc(-c3nc[nH]c3C(=O)NC3CCCCC3)[nH]c2cc1C | 35.6 µM | 
3 | N#Cc1ccccc1NC(=O)c1[nH]cnc1-c1nc2ccccc2[nH]1 | 34.2 µM | 
4 | O=C(NCc1cccs1)c1[nH]cnc1-c1nc2ccccc2[nH]1 | 35.1 µM | 
5 | N#Cc1cccc(NC(=O)c2[nH]cnc2-c2nc3ccccc3[nH]2)c1 | 24.9 µM | 
6 | Cn1c(-c2nc[nH]c2C(=O)NC2CCCCC2)nc2ccccc21 | 36.8 µM | 
7 | Cn1cnc(-c2nc3ccccc3n2C)c1C(=O)NC1CCCCC1 | > 40 µM | 
8 | CC(C)(C)NC(=O)c1[nH]cnc1-c1nc2ccccc2[nH]1 | > 40 µM | 
9 | O=C(NCc1ccco1)c1[nH]cnc1-c1nc2ccccc2[nH]1 | 22.2 µM | 
10 | O=C(NC1CCCC1)c1[nH]cnc1-c1nc2ccccc2[nH]1 | 20.6 µM | 
11 | O=C(NC1CCC1)c1[nH]cnc1-c1nc2ccccc2[nH]1 | 33.8 µM | 
12 | O=c1[nH]cc(F)c(=O)[nH]1 [FLUOROURACIL] | 26.7 µM | > 200 µM
13 | O=C(Nc1cccc2ccccc12)c1[nH]cnc1-c1nc2ccccc2[nH]1 | 34.8 µM | 
14 | O=C(NCC1CC1)c1[nH]cnc1-c1nc2ccccc2[nH]1 | 33.1 µM | 
15 | O=C(c1[nH]cnc1-c1nc2ccccc2[nH]1)N1CCOCC1 | > 40 µM | 
16 | O=C(NC1CCCCCC1)c1[nH]cnc1-c1nc2ccccc2[nH]1 | > 40 µM | 
